Experimental data taken from patent US7429660B2, “ATM inhibitors” (Kudos Pharmaceuticals Limited, priority 2003, dated 2008).

Target: T1, ATM protein immunoprecipitated from HeLa cell nuclear extract (Homo sapiens, UniProt Q13315)
T1 construct: ATM protein was immunoprecipitated from HeLa cell nuclear extract; endogenous in cells; host or cells: HeLa cell nuclear extract (immunoprecipitated with rabbit polyclonal anti-ATM antiserum)
Experiment: In vitro ATM inhibition assay (phosphorylation of GSTp53N66 on serine 15, chemiluminescent detection); also: tested normally from 100 µM down to 0.1 nM
Format: biochemical
Details: read-out: IC50 values (the concentration at which 50% of the enzyme activity is inhibited), ATM inhibition
Experimental: In order to assess the inhibitory action of the compounds against ATM in vitro, the following assay was used to determine IC50 values. ATM protein was immunoprecipitated from HeLa cell nuclear extract using rabbit polyclonal anti-sera raised to the C-terminal ˜500 amino-acid residues of the human ATM protein. […] 10 μl of immunoprecipitated ATM in Buffer C (50 mM Hepes, pH 7.4, 6 mM MgCl2, 150 mM NaCl, 0.1 mM sodium orthovanadate, 4 mM MnCl2, 0.1 mM dithiothreitol, 10% glycerol) was added to 32.5 μl of buffer C containing 1 μg of the ATM substrate GSTp53N66 in a V-bottomed 96 well polypropylene plate. The GSTp53N66 substrate is the amino terminal 66 amino acid residues of human wild type p53 fused to glutathione S-transferase. […] Varying concentrations of inhibitor were then added. […] After 10 minutes of incubation at 37° C., the reactions were initiated by the addition of 5 μl of 500 μM Na-ATP. After 1 hour with shaking at 37° C., 150 μl of phosphate buffered saline (PBS) was added to the reaction and the plate centrifuged at 1500 rpm for 10 minutes. 5 μl of the reaction was then transferred to a 96 well opaque white plate containing 45 μl of PBS to allow the GSTp53N66 substrate to bind to the plate wells. The plate was covered and incubated at room temperature for 1 hour with shaking before discarding the contents. The plate wells were washed twice by the addition of PBS prior to the addition of 3% (w/v) bovine serum albumin (BSA) in PBS. The plate was incubated at room temperature for 1 hour with shaking before discarding the contents and washing twice with PBS. To the wells, 50 μl of a 1:10,000 dilution of primary phosphoserine-15 antibody (Cell Signaling Technology, #9284L) in 3% BSA/PBS was added to detect the phosphorylation event on the serine 15 residue of p53 elicited by the ATM kinase. […] The wells were then washed four times with PBS before the addition of chemiluminescence reagent (NEN Renaissance, NEL105). The plate was then shaken briefly, covered with a transparent plate seal and transferred to a TopCount NXT for chemiluminescent counting. Counts per second, following a one second counting time, were recorded for each reaction.
The enzyme activity for each compound is then calculated using the following equation:
[formula] Results In vitro ATM assays
Compounds were assayed for ATM inhibition activity using the method described above. […] These are determined over a range of different concentrations, normally from 100 μM down to 0.1 nM. Such IC50 values are used as comparative values to identify increased compound potencies.

T1 sequence (Q13315 whole entry): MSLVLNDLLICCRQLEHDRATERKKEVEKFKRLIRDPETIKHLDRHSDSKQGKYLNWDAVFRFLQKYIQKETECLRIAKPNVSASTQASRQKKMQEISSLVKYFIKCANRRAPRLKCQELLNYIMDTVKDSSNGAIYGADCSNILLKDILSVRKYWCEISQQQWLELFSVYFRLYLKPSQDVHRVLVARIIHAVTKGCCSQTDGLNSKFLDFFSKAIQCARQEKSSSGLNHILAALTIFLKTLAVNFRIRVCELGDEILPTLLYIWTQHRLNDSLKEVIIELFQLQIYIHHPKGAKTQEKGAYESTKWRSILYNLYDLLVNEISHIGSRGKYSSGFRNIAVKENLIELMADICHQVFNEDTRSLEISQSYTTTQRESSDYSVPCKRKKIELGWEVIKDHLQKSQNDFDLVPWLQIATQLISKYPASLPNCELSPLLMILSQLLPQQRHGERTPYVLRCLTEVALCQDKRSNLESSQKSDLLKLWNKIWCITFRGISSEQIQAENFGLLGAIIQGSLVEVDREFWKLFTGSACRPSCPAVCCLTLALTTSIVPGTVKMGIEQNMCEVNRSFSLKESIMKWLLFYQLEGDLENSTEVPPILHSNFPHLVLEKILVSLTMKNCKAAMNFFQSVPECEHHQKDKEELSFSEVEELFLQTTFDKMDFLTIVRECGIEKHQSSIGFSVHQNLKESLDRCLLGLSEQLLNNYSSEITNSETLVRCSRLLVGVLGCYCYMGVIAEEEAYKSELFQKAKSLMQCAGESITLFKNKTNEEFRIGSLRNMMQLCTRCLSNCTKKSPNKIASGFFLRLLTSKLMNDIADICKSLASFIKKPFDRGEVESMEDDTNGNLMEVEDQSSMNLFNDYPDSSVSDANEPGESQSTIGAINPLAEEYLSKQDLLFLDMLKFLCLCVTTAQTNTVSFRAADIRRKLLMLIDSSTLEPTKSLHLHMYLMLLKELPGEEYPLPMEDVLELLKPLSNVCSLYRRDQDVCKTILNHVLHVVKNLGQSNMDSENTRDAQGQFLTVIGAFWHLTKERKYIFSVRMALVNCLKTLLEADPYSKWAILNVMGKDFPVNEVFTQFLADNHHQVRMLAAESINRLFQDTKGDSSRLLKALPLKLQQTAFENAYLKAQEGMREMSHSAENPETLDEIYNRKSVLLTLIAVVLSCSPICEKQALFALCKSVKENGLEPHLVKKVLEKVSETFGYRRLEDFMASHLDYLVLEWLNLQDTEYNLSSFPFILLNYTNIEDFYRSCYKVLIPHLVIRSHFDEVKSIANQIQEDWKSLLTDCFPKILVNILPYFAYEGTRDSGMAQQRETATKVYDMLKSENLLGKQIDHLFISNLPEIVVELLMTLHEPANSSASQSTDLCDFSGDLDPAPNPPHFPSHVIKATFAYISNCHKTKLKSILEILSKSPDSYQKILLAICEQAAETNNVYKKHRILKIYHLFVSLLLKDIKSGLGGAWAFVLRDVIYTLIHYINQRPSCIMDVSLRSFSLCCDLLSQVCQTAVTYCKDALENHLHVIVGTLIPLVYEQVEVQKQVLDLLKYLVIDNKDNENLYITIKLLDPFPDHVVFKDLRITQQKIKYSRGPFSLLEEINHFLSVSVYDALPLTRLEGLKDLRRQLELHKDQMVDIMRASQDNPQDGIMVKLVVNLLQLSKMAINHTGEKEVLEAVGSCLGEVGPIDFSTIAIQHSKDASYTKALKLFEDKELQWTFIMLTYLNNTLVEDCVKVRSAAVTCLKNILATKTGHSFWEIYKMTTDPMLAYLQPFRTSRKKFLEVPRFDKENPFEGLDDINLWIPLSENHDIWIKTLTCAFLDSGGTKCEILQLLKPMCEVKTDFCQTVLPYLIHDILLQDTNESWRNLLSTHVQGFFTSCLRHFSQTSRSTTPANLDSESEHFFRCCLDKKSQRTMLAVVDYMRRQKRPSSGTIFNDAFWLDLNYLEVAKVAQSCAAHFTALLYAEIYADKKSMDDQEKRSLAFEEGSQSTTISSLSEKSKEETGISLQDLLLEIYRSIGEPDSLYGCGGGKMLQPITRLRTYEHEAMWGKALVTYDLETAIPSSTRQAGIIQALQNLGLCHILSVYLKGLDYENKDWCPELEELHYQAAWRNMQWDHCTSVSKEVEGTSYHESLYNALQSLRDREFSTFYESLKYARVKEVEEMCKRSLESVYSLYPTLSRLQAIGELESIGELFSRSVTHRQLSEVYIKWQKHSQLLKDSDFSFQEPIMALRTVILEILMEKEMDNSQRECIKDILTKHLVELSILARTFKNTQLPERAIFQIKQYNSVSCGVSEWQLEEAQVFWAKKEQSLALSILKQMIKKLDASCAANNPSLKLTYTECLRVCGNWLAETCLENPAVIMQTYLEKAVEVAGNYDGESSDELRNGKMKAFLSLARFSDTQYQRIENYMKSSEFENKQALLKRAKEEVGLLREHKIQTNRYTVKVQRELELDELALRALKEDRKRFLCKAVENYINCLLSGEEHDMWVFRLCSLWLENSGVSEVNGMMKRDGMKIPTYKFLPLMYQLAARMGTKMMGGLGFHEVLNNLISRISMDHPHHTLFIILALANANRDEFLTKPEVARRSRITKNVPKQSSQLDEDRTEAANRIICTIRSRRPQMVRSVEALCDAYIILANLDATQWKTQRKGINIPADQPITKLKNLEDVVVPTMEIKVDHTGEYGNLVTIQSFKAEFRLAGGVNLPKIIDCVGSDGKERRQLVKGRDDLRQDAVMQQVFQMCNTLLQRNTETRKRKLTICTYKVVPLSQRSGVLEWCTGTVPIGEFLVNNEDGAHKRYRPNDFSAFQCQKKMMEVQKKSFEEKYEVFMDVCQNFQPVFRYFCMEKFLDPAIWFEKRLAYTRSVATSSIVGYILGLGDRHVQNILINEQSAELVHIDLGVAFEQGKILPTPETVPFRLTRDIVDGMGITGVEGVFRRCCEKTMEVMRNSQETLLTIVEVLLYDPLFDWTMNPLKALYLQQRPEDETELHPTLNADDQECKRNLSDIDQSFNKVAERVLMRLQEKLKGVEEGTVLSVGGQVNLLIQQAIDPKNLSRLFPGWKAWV

IC50 [nM]	Structure (SMILES)
< 200	O=c1cc(-c2cccc3c2Sc2ccccc2N3CCCNCC2CCCCC2)oc(N2CCOCC2)c1 [Compound 253]
< 200	O=c1cc(-c2cccc3c2Sc2ccccc2N3CCCNC2CCCC2)oc(N2CCOCC2)c1 [Compound 254]
< 200	CC1CN(CCCN2c3ccccc3Sc3c(-c4cc(=O)cc(N5CCOCC5)o4)cccc32)CC(C)O1 (stereo not shown) [Compound 257]
< 200	O=c1cc(-c2cccc3c2Sc2ccccc2N3CCCN2CCCCCC2)oc(N2CCOCC2)c1 [Compound 260]
< 200	O=c1cc(-c2cccc3c2Sc2ccccc2N3CCCNN2CCCCCC2)oc(N2CCOCC2)c1 [Compound 261]
< 200	O=c1cc(-c2cccc3c2Sc2ccccc2N3CCCNCCN2CCCC2)oc(N2CCOCC2)c1 [Compound 264]
< 200	O=c1cc(-c2cccc3c2Sc2ccccc2N3CCCNCc2ccccn2)oc(N2CCOCC2)c1 [Compound 266]
< 200	O=c1cc(-c2cccc3c2Sc2ccccc2N3CCCNCc2cccnc2)oc(N2CCOCC2)c1 [Compound 267]
< 200	CN1CCN(CCCNCCCN2c3ccccc3Sc3c(-c4cc(=O)cc(N5CCOCC5)o4)cccc32)CC1 [Compound 270]
< 200	O=c1cc(-c2cccc3c2Sc2ccccc2N3CCCNCCc2cnc[nH]2)oc(N2CCOCC2)c1 [Compound 271]
< 200	O=c1cc(-c2cccc3c2Sc2ccccc2N3CCCNCCN2CCOCC2)oc(N2CCOCC2)c1 [Compound 272]
< 200	O=c1cc(-c2cccc3c2Sc2ccccc2N3CCCNCCN2CCN(Cc3ccccc3)CC2)oc(N2CCOCC2)c1 [Compound 274]
< 200	CCN(CC)CCCNCCCN1c2ccccc2Sc2c(-c3cc(=O)cc(N4CCOCC4)o3)cccc21 [Compound 277]
< 200	CN(C)CCN(CCCN1c2ccccc2Sc2c(-c3cc(=O)cc(N4CCOCC4)o3)cccc21)Cc1ccccc1 [Compound 281]
< 200	CN(C)CCNCCCN1c2ccccc2Sc2c(-c3cc(=O)cc(N4CCOCC4)o3)cccc21 [Compound 282]
< 200	CN(C)CCCNCCCN1c2ccccc2Sc2c(-c3cc(=O)cc(N4CCOCC4)o3)cccc21 [Compound 284]
< 200	COCCCNCCCN1c2ccccc2Sc2c(-c3cc(=O)cc(N4CCOCC4)o3)cccc21 [Compound 285]
< 200	CCOCCCNCCCN1c2ccccc2Sc2c(-c3cc(=O)cc(N4CCOCC4)o3)cccc21 [Compound 286]
< 200	O=C1NCCN1CCNCCCN1c2ccccc2Sc2c(-c3cc(=O)cc(N4CCOCC4)o3)cccc21 [Compound 287]
< 200	CN1CCN(CCCN2c3ccccc3Sc3c(-c4cc(=O)cc(N5CCOCC5)o4)cccc32)CC1 [Compound 288]

IC50 [nM]	Structure (SMILES)
< 200	Cc1ccccc1N1CCN(CCCN2c3ccccc3Sc3c(-c4cc(=O)cc(N5CCOCC5)o4)cccc32)CC1 [Compound 289]
< 200	O=c1cc(-c2cccc3c2Sc2ccccc2N3CCCN2CCN(c3ccccn3)CC2)oc(N2CCOCC2)c1 [Compound 290]
< 200	O=c1cc(-c2cccc3c2Sc2ccccc2N3CCCN2CCN(c3ccncc3)CC2)oc(N2CCOCC2)c1 [Compound 291]
< 200	O=c1cc(-c2cccc3c2Sc2ccccc2N3CCCN2CCN(CCOCCO)CC2)oc(N2CCOCC2)c1 [Compound 292]
< 200	Cc1ccc(N2CCN(CCCN3c4ccccc4Sc4c(-c5cc(=O)cc(N6CCOCC6)o5)cccc43)CC2)c(C)c1 [Compound 294]
< 200	O=c1cc(-c2cccc3c2Sc2ccccc2N3CCCN2CCN(c3ncccn3)CC2)oc(N2CCOCC2)c1 [Compound 295]
< 200	CC(C)NC(=O)CN1CCN(CCCN2c3ccccc3Sc3c(-c4cc(=O)cc(N5CCOCC5)o4)cccc32)CC1 [Compound 296]
< 200	O=c1cc(-c2cccc3c2Sc2ccccc2N3CCCN2CCN(c3ccccc3F)CC2)oc(N2CCOCC2)c1 [Compound 297]
< 200	CC(C)(C)OC(=O)N1CCN(CCCN2c3ccccc3Sc3c(-c4cc(=O)cc(N5CCOCC5)o4)cccc32)CC1 [Compound 298]
< 200	CCOC(=O)CN1CCN(CCCN2c3ccccc3Sc3c(-c4cc(=O)cc(N5CCOCC5)o4)cccc32)CC1=O [Compound 299]
< 200	O=c1cc(-c2cccc3c2Sc2ccccc2N3CCCN2CCN(CCO)CC2)oc(N2CCOCC2)c1 [Compound 300]
< 200	O=c1cc(-c2cccc3c2Sc2ccccc2N3CCCN2CCNCC2)oc(N2CCOCC2)c1 [Compound 303]
< 200	CN(C)CCN1CCN(CCCN2c3ccccc3Sc3c(-c4cc(=O)cc(N5CCOCC5)o4)cccc32)CC1 [Compound 304]
< 200	O=c1cc(-c2cccc3c2Sc2ccccc2N3CCCNC2CCC(O)CC2)oc(N2CCOCC2)c1 (stereo not shown) [Compound 306]
< 200	CN1CCC(NCCCN2c3ccccc3Sc3c(-c4cc(=O)cc(N5CCOCC5)o4)cccc32)CC1 [Compound 307]
< 200	CC(C)(C)OC(=O)N1CCC(NCCCN2c3ccccc3Sc3c(-c4cc(=O)cc(N5CCOCC5)o4)cccc32)CC1 [Compound 311]
< 200	CCOC(=O)C1CCN(CCCN2c3ccccc3Sc3c(-c4cc(=O)cc(N5CCOCC5)o4)cccc32)CC1 [Compound 312]
< 200	CCOC(=O)C1CCCN(CCCN2c3ccccc3Sc3c(-c4cc(=O)cc(N5CCOCC5)o4)cccc32)C1 (stereo not shown) [Compound 315]
< 200	CC1(C)OCC(CNCCCN2c3ccccc3Sc3c(-c4cc(=O)cc(N5CCOCC5)o4)cccc32)O1 (stereo not shown) [Compound 321]
< 200	O=c1cc(-c2cccc3c2Sc2ccccc2N3CCCNC(CO)(CO)CO)oc(N2CCOCC2)c1 [Compound 322]

IC50 [nM]	Structure (SMILES)
< 200	O=c1cc(-c2cccc3c2Sc2ccccc2N3CCCNCC2CCCCCC2O)oc(N2CCOCC2)c1 (stereo not shown) [Compound 326]
< 200	O=c1cc(-c2cccc3c2Sc2ccccc2N3CCCN(CCO)CCO)oc(N2CCOCC2)c1 [Compound 327]
< 200	O=c1cc(-c2cccc3c2Sc2ccccc2N3CCCNCC2CCCCC2O)oc(N2CCOCC2)c1 (stereo not shown) [Compound 328]
< 200	O=c1cc(-c2cccc3c2Sc2ccccc2N3CCCNc2nc(-c3ccccc3)ns2)oc(N2CCOCC2)c1 [Compound 330]
< 200	CN1CCCN(CCCN2c3ccccc3Sc3c(-c4cc(=O)cc(N5CCOCC5)o4)cccc32)CC1 [Compound 331]
< 200	CC(C)(C)OC(=O)N1CCCN(CCCN2c3ccccc3Sc3c(-c4cc(=O)cc(N5CCOCC5)o4)cccc32)CC1 [Compound 333]
< 200	O=C(CCCCC1SC[C@@H]2NC(=O)N[C@H]12)NCCCCCC(=O)NCCNCCCN1c2ccccc2Sc2c(-c3cc(=O)cc(N4CCOCC4)o3)cccc21 (stereo partly shown) [Compound 336]
< 200	CC(=O)N1CCN(CC(=O)Nc2ccc3c(c2)Cc2cccc(-c4cc(=O)cc(N5CCOCC5)o4)c2S3)CC1 [Compound 338]
< 200	COCCN1CCN(CC(=O)Nc2ccc3c(c2)Cc2cccc(-c4cc(=O)cc(N5CCOCC5)o4)c2S3)CC1 [Compound 339]
< 200	O=C(CN1CCN(CCOCCO)CC1)Nc1ccc2c(c1)Cc1cccc(-c3cc(=O)cc(N4CCOCC4)o3)c1S2 [Compound 340]
< 200	CC(C)N1CCN(CC(=O)Nc2ccc3c(c2)Cc2cccc(-c4cc(=O)cc(N5CCOCC5)o4)c2S3)CC1 [Compound 341]
< 200	CCN1CCN(CC(=O)Nc2ccc3c(c2)Cc2cccc(-c4cc(=O)cc(N5CCOCC5)o4)c2S3)CC1 [Compound 342]
< 200	O=C(CN1CCN(c2ccccn2)CC1)Nc1ccc2c(c1)Cc1cccc(-c3cc(=O)cc(N4CCOCC4)o3)c1S2 [Compound 343]
< 200	O=C(CN1CCN(c2ccc(F)cc2)CC1)Nc1ccc2c(c1)Cc1cccc(-c3cc(=O)cc(N4CCOCC4)o3)c1S2 [Compound 344]
< 200	O=C(CN1CCN(c2ncccn2)CC1)Nc1ccc2c(c1)Cc1cccc(-c3cc(=O)cc(N4CCOCC4)o3)c1S2 [Compound 345]
< 200	CC(C)NC(=O)CN1CCN(CC(=O)Nc2ccc3c(c2)Cc2cccc(-c4cc(=O)cc(N5CCOCC5)o4)c2S3)CC1 [Compound 346]
< 200	CN(C)CCN1CCN(CC(=O)Nc2ccc3c(c2)Cc2cccc(-c4cc(=O)cc(N5CCOCC5)o4)c2S3)CC1 [Compound 347]
< 200	O=C(CN1CCN(CCO)CC1)Nc1ccc2c(c1)Cc1cccc(-c3cc(=O)cc(N4CCOCC4)o3)c1S2 [Compound 348]
